IC50 data for eight compounds are collected here from patent US20080200454A1, “CARBON-LINKED TETRAHYDRO-PYRAZOLO-PYRIDINE MODULATORS OF CATHEPSIN S” (priority 2007, published 2008).

The assay concerns the target Recombinant human cathepsin S (CatS) (Homo sapiens, UniProt P25774). The experiment in a line: Recombinant human cathepsin S (CatS) inhibition assay, fluorogenic substrate Z-Valine-Valine-Arginine-AMC.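 Note: Baculovirus-expressed CatS in pH 5.0 sodium acetate buffer with DTT and NaCl, fluorescence read each minute over 20 min, inhibition derived from rate slope.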

Like-named read-outs stand apart in the source and are kept apart here.

Sequence of Recombinant human cathepsin S (CatS) (P25774 115-331): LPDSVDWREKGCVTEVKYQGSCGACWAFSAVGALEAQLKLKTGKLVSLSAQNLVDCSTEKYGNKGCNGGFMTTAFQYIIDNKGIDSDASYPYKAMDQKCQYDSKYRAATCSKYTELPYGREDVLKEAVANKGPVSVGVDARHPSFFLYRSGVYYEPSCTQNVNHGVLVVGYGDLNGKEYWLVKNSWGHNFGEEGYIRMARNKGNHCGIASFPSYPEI

One may read the IC50 as the midpoint of a concentration-inhibition curve. On to `NC(=O)N1CCc2c(c(-c3ccc(Cl)c(C#Cc4ccc(Cl)c(CN5CCOCC5)c4)c3)nn2CCCN2CCCCC2)C1` [Example 602, 3-(4-Chloro-3-{[4-chloro-3-(morpholin-4-ylmethyl)phenyl]ethynyl}phenyl)-1-(3-piperidin-1-ylpropyl)-1,4,6,7-tetrahydro-5H-pyrazolo[4,3-c]pyridine-5-carboxamide], for which the IC50 is 0.04 µM.

For the compound `NC(=O)N1CCc2c(c(-c3ccc(Cl)c(C#Cc4ccc(Cl)cc4)c3)nn2C[C@@H](O)CN2CCC(C3CCNCC3)CC2)C1` [Example 238, 1-[(2S)-3-(4,4′-Bipiperidin-1-yl)-2-hydroxypropyl]-3-{4-chloro-3-[(4-chlorophenyl)ethynyl]phenyl}-1,4,6,7-tetrahydro-5H-pyrazolo[4,3-c]pyridine-5-carboxamide], the IC50 was determined as 0.003 µM.

`CC(C)(C)OC(=O)N1CCC(C2CCN(C[C@H](O)Cn3nc(-c4ccc(Cl)c(CCc5ccc(Cl)cc5)c4)c4c3CCN(C(N)=O)C4)CC2)CC1` [Example 242, 1,1-Dimethylethyl 1′-{(2S)-3-[5-(aminocarbonyl)-3-{4-chloro-3-[2-(4-chlorophenyl)ethyl]phenyl}-4,5,6,7-tetrahydro-1H-pyrazolo[4,3-c]pyridin-1-yl]-2-hydroxypropyl}-4,4′-bipiperidine-1-carboxylate]: the 50% inhibitory concentration (IC50) is 0.03 µM.

For `CS(=O)(=O)N1CCc2c(c(-c3ccc(Cl)c(CCc4ccc(CNCc5ccc(Cl)cc5)cc4)c3)nn2CCCN2CCN(c3ccccc3)CC2)C1` [Example 395, 1-{4-[2-(2-Chloro-5-{5-(methylsulfonyl)-1-[3-(4-phenylpiperazin-1-yl)propyl]-4,5,6,7-tetrahydro-1H-pyrazolo[4,3-c]pyridin-3-yl}phenyl)ethyl]phenyl}-N-[(4-chlorophenyl)methyl]methanamine], the concentration for half-maximal inhibition (IC50) is 0.02 µM.

Take `CS(=O)(=O)N1CCc2c(c(-c3ccc(Cl)c(C#Cc4ccc(CNCc5ccc(Cl)cc5)cc4)c3)nn2CCCN2CCS(=O)(=O)CC2)C1` [Example 398, 1-{4-[(2-Chloro-5-{1-[3-(1,1-dioxidothiomorpholin-4-yl)propyl]-5-(methylsulfonyl)-4,5,6,7-tetrahydro-1H-pyrazolo[4,3-c]pyridin-3-yl}phenyl)ethynyl]phenyl}-N-[(4-chlorophenyl)methyl]methanamine]: the IC50 (CatS IC50) is 0.38 µM.

Regarding `CC(=O)N1CCC(C2CCN(C[C@H](O)Cn3nc(-c4ccc(Cl)c(CCc5ccc(Cl)cc5)c4)c4c3CCN(S(C)(=O)=O)C4)CC2)CC1` [Example 247, (2S)-1-(1′-Acetyl-4,4′-bipiperidin-1-yl)-3-[3-{4-chloro-3-[2-(4-chlorophenyl)ethyl]phenyl}-5-(methylsulfonyl)-4,5,6,7-tetrahydro-1H-pyrazolo[4,3-c]pyridin-1-yl]propan-2-ol], the concentration for half-maximal inhibition (IC50) (CatS IC50) amounted to 0.07 µM.

For the compound `CS(=O)(=O)N1CCc2c(c(-c3ccc(C(F)(F)F)c(C#Cc4ccc(Cl)cc4)c3)nn2CC(O)CN2CCC(C(N)=O)CC2)C1` (centres unmarked) [Example 119, 1-(3-{3-[3-(4-Chloro-phenylethynyl)-4-trifluoromethyl-phenyl]-5-methanesulfonyl-4,5,6,7-tetrahydro-pyrazolo[4,3-c]pyridin-1-yl}-2-hydroxy-propyl)-piperidine-4-carboxylic acid amide], the concentration for half-maximal inhibition (IC50) stood at 0.06 µM.

`C[C@H]1COCCN1CCCn1nc(-c2ccc(Cl)c(C#Cc3ccc(Cl)c(COCCCO)c3)c2)c2c1CCN(C(=O)C(N)=O)C2` [Example 274, (S)-2-{3-{4-Chloro-3-[4-chloro-3-(3-hydroxy-propoxymethyl)-phenylethynyl]-phenyl}-1-[3-(3-methyl-morpholin-4-yl)-propyl]-1,4,6,7-tetrahydro-pyrazolo[4,3-c]pyridin-5-yl}-2-oxo-acetamide]: the half-inhibitory concentration (IC50) (CatS IC50) is 0.04 µM.
